In patent US20200305435A1, “SYNERGISTIC COMBINATION OF BIOCIDES” (LONZA LLC, priority 2016, published 2020):

Tests used:
Assay in all cases: Minimum inhibitory concentration, microtitre plate doubling dilutions
Type in all cases: cell-based
Ps.a = conditions: Pseudomonas aeruginosa; biocide alone; read-out: MIC versus organism Ps.a
Protocol: (§1) Bacteria were grown to stationary phase (18 h) in nutrient broth (approximately 10^9 organisms per ml). A 0.1% (v/v) inoculum was used to seed fresh medium and 100 μl of this was added to each well of a microtitre plate, except for the first well which contained 200 μl. Using doubling dilutions, the concentration of each antimicrobial was varied in each well along the ordinate axis. The presence or absence of growth was determined by visual inspection after 24 hours incubation at 37° C.

Staphylococcus aureus = conditions: biocide alone, visual growth after 24 hours at 37° C., read-out: MIC versus organism S.a
Protocol: as §1

Escherichia coli = conditions: biocide alone, visual growth after 24 hours at 37° C., read-out: MIC versus organism E.c
Protocol: as §1

Aspergillus brasiliensis = conditions: biocide alone, visual growth after 48 hours at 25° C., read-out: MIC versus organism A.b
Protocol: (§2) Fungi were grown on malt agar for 7 days at 25° C. to form a mycelial mat and the spore suspension harvested using 10 ml physiological saline (0.85% (w/v) NaCl). This was used as an inoculum as above. The presence or absence of growth was determined by visual inspection after 48 hours incubation at 25° C.

C. albicans = conditions: Candida albicans; biocide alone; read-out: MIC versus organism C.a
Protocol: as §2

N=C(NCCCCCCNC(=N)NC(=N)Nc1ccc(Cl)cc1)NC(=N)Nc1ccc(Cl)cc1 [Spectradyne, Chlorhexidine gluconate]
MIC (Ps.a): 4 µg/mL | MIC (Staphylococcus aureus): 1 µg/mL | MIC (Escherichia coli): 2 µg/mL | MIC (Aspergillus brasiliensis): 62.5 µg/mL | MIC (C. albicans): 16 µg/mL
